In patent publication US8859574B2 (IRM LLC, priority 2008, dated 2014):

target: T1, IGF-1R Ba/F3 (Homo sapiens, UniProt P08069); experiment: Ba/F3 Cell Viability Inhibition Assay (IGF-1R Ba/F3); type: cell-based, murine; settings: Tel-TK transformed Ba/F3 cells, 48 hours, Britelite luminescence
T1 construct: fused on or other part: TEL- (or BCR-) IGF-1R in Ba/F3: the kinase part holds the site
Source text: The IC50 of a drug may be determined constructing a dose-response curve and examining the effect of different concentrations of antagonist on reversing agonist activity. IC50 values may be calculated for a given antagonist by determining the concentration needed to inhibit half of the maximum biological response of the agonist. To calculate IC50 values, a series of dose-response data (e.g., drug concentrations x1, x2, . . . , xn and growth inhibition y1, y2, . . . , yn, the values of y are in the range of 0-1) is generated. IC50 values may be determined by a computer-aided system using the formula: y=D+((A−D)/(1+10^(x-log(IC50)B) • where A is the ratio of growth inhibition between lowest drug concentration and control; B is the slope of sigmoidal curvel; and D is the ratio of growth inhibition between highest drug concentration and control.
Ba/F3 is a murine IL-3-dependent pro-B lymphoma cell line. Parental Ba/F3 cells are used to generate a panel of sublines whose proliferation and survival is rendered IL-3-independent by stable transduction with individual tyrosine kinases activated by fusion with the amino-terminal portion of TEL (amino acid 1-375) or BCR. In order to generate Ba/F3 cell lines transformed by Tel-Tyrosine Kinase (TK) fusions, parental Ba/F3 cells are infected with a retrovirus harboring each TEL-fusion kinase and subjected to puromycin selection and IL-3 withdrawal to obtain IL-3-independent, transformed Ba/F3 cells.
Each transformed Ba/F3 cells are cultured in RPMI-1640 media (Gibco Cat #11875093, Carlsbad, Calif.) supplemented with 10% FBS (Hyclone Cat #SV30014.03, Logan, Utah), 4.5 g/L glucose (Sigma #G5400, St. Louis, Mo.), 1.5 g/L sodium bicarbonate (Biowhittaker #17-613E, Walkersville, Md.) and Pen/Strep (Gibco #10378-016, Carlsbad, Calif.). Cells are splitted twice weekly.
The potency of test compounds against various Tel-TK transformed Ba/F3 lines is determined as follows. Exponentially growing BaF3 Tel-TK cells are diluted in fresh medium to 75,000 cells/mL and seeded into 384-well plates (3750 cells/well) at 50 μL/well using a μFill liquid dispenser (BioTek, Winooski, Vt., USA). Duplicate plates are run for each cell line. Test and control compounds are serially diluted with DMSO and arrayed in a polypropylene 384-well plate. […] of compound is transferred into the assay plates using a pin-transfer device, and the plates are incubated at 37° C. (5% CO2) for 48 hours. 25 μL Britelite (Perkin Elmer) is added and luminescence is quantified using Analyst GT (Molecular Devices). Custom curve-fitting software is used to produce a logistic fit of percent cell viability as a function of the logarithm of inhibitor concentration. The IC50 is interpolated as the concentration of compound needed to reduce cell viability to 50% of a DMSO control. Parental Ba/F3 cells that are maintained and cultured in presence of IL-3 (1 ng/ml in final) are diluted in fresh medium containing IL-3 (1 ng/ml in final) to 75,000 cells/mL following the same procedure as described above.

T1 sequence (P08069 999-1274 limits assumed): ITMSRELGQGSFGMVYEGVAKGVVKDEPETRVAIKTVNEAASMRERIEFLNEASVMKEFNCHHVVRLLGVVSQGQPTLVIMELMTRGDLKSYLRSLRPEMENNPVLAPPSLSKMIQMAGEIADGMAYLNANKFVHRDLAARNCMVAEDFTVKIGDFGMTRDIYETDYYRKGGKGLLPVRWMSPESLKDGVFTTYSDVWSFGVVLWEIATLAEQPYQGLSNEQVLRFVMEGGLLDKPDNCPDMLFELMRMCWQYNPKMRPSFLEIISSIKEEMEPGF

| SMILES | IC50 [nM] |
| --- | --- |
| Cc1cc(Nc2nc(Nc3cc(C)c(C4CCN(C(=O)C5(N)CC5)CC4)cc3F)ncc2Cl)n[nH]1 [Compound 93, (1-aminocyclopropyl)(4-(4-(5-chloro-4-(5-methyl-1H-pyrazol-3-ylamino)pyrimidin-2-ylamino)-5-fluoro-2-methylphenyl)piperidin-1-yl)methanone] | 33 |
| Cc1cc(Nc2nc(Nc3cc(C)c(C4CCN(C(=O)CN5C(C)(C)CCCC5(C)C)CC4)cc3C)ncc2Cl)n[nH]1 [Compound 104, 1-(4-(4-(5-chloro-4-(5-methyl-1H-pyrazol-3-ylamino)pyrimidin-2-ylamino)-2,5-dimethylphenyl)piperidin-1-yl)-2-(2,2,6,6-tetramethylpiperidin-1-yl)ethanone] | 18 |
| Cc1cc(Nc2nc(Nc3cc(C)c(C4CCN(CCO)CC4)cc3C)ncc2C(F)(F)F)n[nH]1 [Compound 222, 2-(4-(2,5-dimethyl-4-(4-(5-methyl-1H-pyrazol-3-ylamino)-5-(trifluoromethyl)pyrimidin-2-ylamino)phenyl)piperidin-1-yl)ethanol] | 38 |
| Cc1cc(Nc2nc(Nc3cc(C)c(C4CCNC(C)C4)cc3F)ncc2Cl)n[nH]1 (stereo not drawn) [Compound 273, 5-chloro-N2-(2-fluoro-5-methyl-4-(2-methylpiperidin-4-yl)phenyl)-N4-(5-methyl-1H-pyrazol-3-yl)pyrimidine-2,4-diamine] | 18 |
| CCc1cnc(N2CCC(c3cc(F)c(Nc4ncc(Cl)c(Nc5cc(C)[nH]n5)n4)cc3C)CC2)nc1 [Compound 149, 5-Chloro-N2-(4-(1-(5-ethylpyrimidin-2-yl)piperidin-4-yl)-2-fluoro-5-methylphenyl)-N4-(5-methyl-1H-pyrazol-3-yl)pyrimidine-2,4-diamine] | 955 |
| CCNC1(C(=O)N2CCC(c3cc(F)c(Nc4ncc(Cl)c(Nc5cc(C)[nH]n5)n4)cc3C)CC2)CCC1 [Compound 176, (4-(4-(5-chloro-4-(5-methyl-1H-pyrazol-3-ylamino)pyrimidin-2-ylamino)-5-fluoro-2-methylphenyl)piperidin-1-yl)(1-(ethylamino)cyclobutyl)methanone] | 84 |
| Cc1cc(Nc2nc(Nc3cc(C)c(C4CCN(S(=O)(=O)CCCN5CC[C@@H](O)C5)CC4)cc3C)ncc2Cl)n[nH]1 [Compound 234, (R)-1-(3-(4-(4-(5-chloro-4-(5-methyl-1H-pyrazol-3-ylamino)pyrimidin-2-ylamino)-2,5-dimethylphenyl)piperidin-1-ylsulfonyl)propyl)pyrrolidin-3-ol] | 73 |
| Cc1cc(Nc2nc(Nc3cc(C)c(C4CCN([C@H]5CC[C@@H](O)CC5)CC4)cc3F)ncc2Cl)n[nH]1 [Compound 311, Cis-4-(4-(4-(5-chloro-4-(5-methyl-1H-pyrazol-3-ylamino)pyrimidin-2-ylamino)-5-fluoro-2-methylphenyl)piperidin-1-yl)cyclohexanol] | 21 |
| Cc1cc(Nc2nc(Nc3cc(C)c(C4CCN(C5CCOCC5)CC4)cc3C)ncc2Cl)n[nH]1 [Compound 252, 5-chloro-N2-(2,5-dimethyl-4-(1-(tetrahydro-2H-pyran-4-yl)piperidin-4-yl)phenyl)-N4-(5-methyl-1H-pyrazol-3-yl)pyrimidine-2,4-diamine] | 14 |
| Cc1cc(Nc2nc(Nc3cc(C)c(C4CCN(C(=O)C5CN(C)C5)CC4)cc3C)ncc2Cl)n[nH]1 [Compound 120, (4-(4-(5-chloro-4-(5-methyl-1H-pyrazol-3-ylamino)pyrimidin-2-ylamino)-2,5-dimethylphenyl)piperidin-1-yl)(1-methylazetidin-3-yl)methanone] | 25 |
| Cc1cc(Nc2nc(Nc3cc(C)c(C4CCN(C(=O)c5c(C)noc5C)CC4)cc3F)ncc2Cl)n[nH]1 [Compound 137, (4-(4-(5-chloro-4-(5-methyl-1H-pyrazol-3-ylamino)pyrimidin-2-ylamino)-5-fluoro-2-methylphenyl)piperidin-dimethylisoxazol-4-yl)methanone] | 18 |
| CCc1cc(Nc2nc(Nc3cc(C)c(C4CCN(CC)CC4)cc3F)ncc2Cl)n[nH]1 [Compound 268, 5-chloro-N4-(5-ethyl-1H-pyrazol-3-yl)-N2-(4-(1-ethylpiperidin-4-yl)-2-fluoro-5-methylphenyl)pyrimidine-2,4-diamine] | 22 |
| Cc1cc(Nc2nc(Nc3cc(C)c(C4CCN(Cc5cccnc5)CC4)cc3C)ncc2Cl)n[nH]1 [Compound 308, 5-chloro-N2-(2,5-dimethyl-4-(1-(pyridin-3-ylmethyl)piperidin-4-yl)phenyl)-N4-(5-methyl-1H-pyrazol-3-yl)pyrimidine-2,4-diamine] | 6 |
| Cc1cc(Nc2nc(Nc3cc(C)c(C4CCN(Cc5ccncc5)CC4)cc3C)ncc2Cl)n[nH]1 [Compound 309, 5-chloro-N2-(2,5-dimethyl-4-(1-(pyridin-4-ylmethyl)piperidin-4-yl)phenyl)-N4-(5-methyl-1H-pyrazol-3-yl)pyrimidine-2,4-diamine] | 8 |
| CCc1noc(CN2CCC(c3cc(C)c(Nc4ncc(Cl)c(Nc5cc(C)[nH]n5)n4)cc3C)CC2)n1 [Compound 303, 5-chloro-N2-(4-(1-((3-ethyl-1,2,4-oxadiazol-5-yl)methyl)piperidin-4-yl)-2,5-dimethylphenyl)-N4-(5-methyl-1H-pyrazol-3-yl)pyrimidine-2,4-diamine] | 6 |
| Cc1cc(Nc2nc(Nc3cc(C)c(C4CCN(CCCS(=O)(=O)N5CCOCC5)CC4)cc3F)ncc2Cl)n[nH]1 [Compound 245, 5-chloro-N2-(2-fluoro-5-methyl-4-(1-(3-(morpholinosulfonyl)propyl)piperidin-4-yl)phenyl)-N4-(5-methyl-1H-pyrazol-3-yl)pyrimidine-2,4-diamine] | 77 |
| Cc1cc(Nc2nc(Nc3cc(C)c(C4CCN(C(=O)C5CNC5=O)CC4)cc3F)ncc2Cl)n[nH]1 (stereo not drawn) [Compound 119, 3-(4-(4-(5-chloro-4-(5-methyl-1H-pyrazol-3-ylamino)pyrimidin-2-ylamino)-5-fluoro-2-methylphenyl)piperidine-1-carbonyl)azetidin-2-one] | 2990 |
| Cc1cc(Nc2nc(Nc3cc(C)c(C4CCN(C(=O)C5CCCC(=O)N5)CC4)cc3F)ncc2Cl)n[nH]1 (stereo not drawn) [Compound 142, 6-(4-(4-(5-chloro-4-(5-methyl-1H-pyrazol-3-ylamino)pyrimidin-2-ylamino)-5-fluoro-2-methylphenyl)piperidine-1-carbonyl)piperidin-2-one] | 282 |
| COc1cc(Nc2ncc(Cl)c(Nc3cc(C)[nH]n3)n2)c(C)cc1C1CCN(C[C@H](O)C(F)(F)F)CC1 [Compound 213, (S)-3-(4-(4-(5-chloro-4-(5-methyl-1H-pyrazol-3-ylamino)pyrimidin-2-ylamino)-2-methoxy-5-methylphenyl)piperidin-1-yl)-1,1,1-trifluoropropan-2-ol] | 12 |
| CNC(=O)CN1CCC(c2cc(F)c(Nc3ncc(Cl)c(Nc4cc(C(F)(F)F)[nH]n4)n3)cc2C)CC1 [Compound 172, 2-(4-(4-(5-chloro-4-(5-(trifluoromethyl)-1H-pyrazol-3-ylamino)pyrimidin-2-ylamino)-5-fluoro-2-methylphenyl)piperidin-1-yl)-N-methylacetamide] | 69 |
| Cc1cc(Nc2nc(Nc3cc(C)c(C4CCN(Cc5noc(C(C)(C)C)n5)CC4)cc3F)ncc2Cl)n[nH]1 [Compound 267, N2-(4-(1-((5-tert-butyl-1,2,4-oxadiazol-3-yl)methyl)piperidin-4-yl)-2-fluoro-5-methylphenyl)-5-chloro-N4-(5-methyl-1H-pyrazol-3-yl)pyrimidine-2,4-diamine] | 77 |
